Measurements: patent publication US20240059668A1, “THIOHYDROXYPYRIDINE CHELATES” (LUMIPHORE, INC., priority 2020, published 2024)

Test: Stability testing of macrocyclic copper chelates: DTPA challenge analysed by reversed phase HPLC
Assay type: physicochemical
Conditions: approximately 1 mM complex in 100 mM Tris-HCl buffer, pH 7.5, combined one to one with 55 mM DTPA, ambient temperature, 30 minutes
Description: Stability testing of macrocyclic copper chelates. (FIG. 1).
Example 13. Copper complexes 27, 39, and 44 were dissolved at approximately 1 mM concentration in 100 mM Tris-HCl buffer, pH 7.5. A solution of 55 mM diethylenetriaminepentaacetic acid (DTPA), pH 7.5 was prepared. Copper complexes were analyzed by reversed phase HPLC using an Agilent 1200 Series instrument equipped with a Zorbax Eclipse XDB-C18 4.6×150 mm 5 μm column. The method used an isocratic gradient of 0.1M triethylammonium bicarbonate, pH 7.5 (Solvent A) and 10-80% acetonitrile (Solvent B) as mobile phases. A solution of copper complex and DTPA solution combined in a ratio of one to one was prepared and mixed at ambient temperature for 30 minutes prior to analysis. Admixture of DTPA and copper complexes led to variable levels of dissociation of the copper complex, as quantified by the elution of the metal free ligand at shorter retention time.

| Substance | stability of the copper complex in the presence of DTPA competitor (dissociation quantified by elution of the metal free ligand) |
| --- | --- |
| Copper(II) complex of 4-((2-(2-aminoethoxy)ethyl)carbamoyl)-1^6,10^6-dimercapto-2,9,11,24-tetraoxo-16,19-dioxa-3,8,12,23-tetraaza-1,10(2,5)-dipyridin-1- iumacyclotetracosaphane 1^1,10^1-dioxide, trifluoroacetate salt [Compound 44] | more stable in the presence of DTPA competitor than complex 39 |
| Copper complex of 16-(2-(4-(((S)-5-carboxy-5-(3-((S)-1,3-dicarboxypropyl)ureido)pentyl)carbamoyl)benzamido)ethyl)-1^6,11^6-dimercapto-2,10,12,20-tetraoxo-6- oxa-3,9,13,16,19-pentaaza-1,11(2,5)-dipyridin-1-iumacycloicosaphane 1^1,11^1-dioxide [Compound 27] | both are more stable than compound 27 |
| Copper(II) complex of 6-(2-aminoethyl)-1^6,11^6-dimercapto-2,10,12,25-tetraoxo-17,20-dioxa-3,6,9,13,24-pentaaza-1,11(2,5)-dipyridin-1-iumacyclopentacosaphane 1^1,11^1-dioxide [Compound 39] | more stable than compound 27 |
